Converted amounts (≈) assume the structure as drawn. Blank lines part the entries; values can stand above or below the molecule they belong to.
How the values were obtained:
HCT116 cells = assay: XTT cytotoxicity assay, HCT116 (H); type: cell-based; details: Homo sapiens, HCT-116
Method: (§1) XTT Cytotoxicity Assay The XTT assay is a non-radioactive alternative for the [^51Cr] release cytotoxicity assay. XTT is a tetrazolium salt that is reduced to a formazan dye only by metabolically active, viable cells. The reduction of XTT is measured spectrophotometrically as OD490-OD650. To measure the cytotoxicity of specific compounds against cancer cells, 9×10^3 MCF-7 human breast cancer cells (shown in the tables as “(M)”), obtained from the American Type Culture Collection are plated per well in 96 well plates in DMEM medium with 10% fetal bovine serum, insulin, penicillin, and streptomycin. Following overnight culture at 37° C. and 5% CO2, the compounds to be tested, dissolved in DMSO, are added to the wells in 1 μl volume at the following concentrations: 80, 40, 20, 10, 5, 2.5, 1.25, and 0.625 μg/ml in triplicate. Additional concentrations are tested if required. 1 μl of DMSO is added to triplicate wells are the vehicle control. C75 is run at 40, 20, […], and 5 μg/ml in triplicate as positive controls. After 72 hours of incubation, cells are incubated for 4 hours with the XTT reagent as per manufacturer's instructions (Cell Proliferation Kit II (XTT) Roche). Plates are read at OD490 and OD650 on a Molecular Devices SpectraMax Plus Spectrophotometer. Three wells containing the XTT reagent without cells serve as the plate blank. XTT data are reported as OD490-OD650. Averages and standard error of the mean are computed using SOFTmax Pro software (Molecular Dynamics). The IC50 for the compounds is defined as the concentration of drug leading to a 50% reduction in OD490-OD650 compared to controls. The OD490-OD650 are computed by the SOFTmax PRO software (Molecular Devices) for each compound concentration. IC50 is calculated by linear regression, plotting the FAS activity as percent of control versus drug concentrations. Linear regression, best-fit line, r^2, and 95% confidence intervals are determined using Prism Version 3.0 (Graph Pad Software). The test was also run against OVCAR3 cells (“OV”), and HCT116 cells (“H”).

[1] = system: MCF-7 human breast cancer cells; assay: XTT cytotoxicity assay, MCF-7 (M); type: cell-based; details: MCF7, MCF-7, 72 hours
Method: XTT Cytotoxicity Assay The XTT assay is a non-radioactive alternative for the [^51Cr] release cytotoxicity assay. XTT is a tetrazolium salt that is reduced to a formazan dye only by metabolically active, viable cells. The reduction of XTT is measured spectrophotometrically as OD490-OD650. To measure the cytotoxicity of specific compounds against cancer cells, 9×10^3 MCF-7 human breast cancer cells (shown in the tables as “(M)”), obtained from the American Type Culture Collection are plated per well in 96 well plates in DMEM medium with 10% fetal bovine serum, insulin, penicillin, and streptomycin. Following overnight culture at 37° C. and 5% CO2, the compounds to be tested, dissolved in DMSO, are added to the wells in 1 μl volume at the following concentrations: 80, 40, 20, 10, 5, 2.5, 1.25, and 0.625 μg/ml in triplicate. Additional concentrations are tested if required. 1 μl of DMSO is added to triplicate wells are the vehicle control. C75 is run at 40, 20, […], and 5 μg/ml in triplicate as positive controls. After 72 hours of incubation, cells are incubated for 4 hours with the XTT reagent as per manufacturer's instructions (Cell Proliferation Kit II (XTT) Roche). Plates are read at OD490 and OD650 on a Molecular Devices SpectraMax Plus Spectrophotometer. Three wells containing the XTT reagent without cells serve as the plate blank. XTT data are reported as OD490-OD650. Averages and standard error of the mean are computed using SOFTmax Pro software (Molecular Dynamics). The IC50 for the compounds is defined as the concentration of drug leading to a 50% reduction in OD490-OD650 compared to controls. The OD490-OD650 are computed by the SOFTmax PRO software (Molecular Devices) for each compound concentration. IC50 is calculated by linear regression, plotting the FAS activity as percent of control versus drug concentrations. Linear regression, best-fit line, r^2, and 95% confidence intervals are determined using Prism Version 3.0 (Graph Pad Software).

OVCAR3 cells = assay: XTT cytotoxicity assay, OVCAR3 (OV); type: cell-based; details: Homo sapiens, OVCAR-3
Method: as §1

[2] = system: MCF-7 human breast cancer cells (fatty acid synthesis pathway activity); assay: [14C]acetate incorporation into total lipids; type: cell-based; details: MCF7, [14C]acetate incorporation into lipids
Method: Measurement of [^14C]acetate Incorporation into Total Lipids and Determination of IC50 of Compounds. This assay measures the incorporation of [^14C]acetate into total lipids and is a measure of fatty acid synthesis pathway activity in vitro. It is utilized to measure inhibition of fatty acid synthesis in vitro.
MCF-7 human breast cancer cells cultured as above, are plated at 5×10^4 cells per well in 24-well plates. Following overnight incubation, the compounds to be tested, solubilized in DMSO, are added at 5, 10, and 20 μg/ml in triplicate, with lower concentrations tested if necessary. DMSO is added to triplicate wells for a vehicle control. C75 is run at 5 and 10 μg/ml in triplicate as positive controls. After 4 hours of incubation, 0.25 μCi of [^14C]acetate (10 μl volume) is added to each well.
After 2 hours of additional incubation, medium is aspirated from the wells and 800 μl of chloroform:methanol (2:1) and 700 μl of 4 mM MgCl2 is added to each well. Contents of each well are transferred to 1.5 Eppendorf tubes, and spun at full-speed for 2 minutes in a high-speed Eppendorf Microcentrifuge 5415D. After removal of the aqueous (upper) layer, an additional 700 μl of chloroform:methanol (2:1) and 500 μl of 4 mM MgCl2 are added to each tube and then centrifuged for 1 minutes as above. The aqueous layer is removed with a Pasteur pipette and discarded. An additional 400 μl of chloroform:methanol (2:1) and 200 μl of 4 mM MgCl2 are added to each tube, then centrifuged and aqueous layer is discarded. The lower (organic) phase is transferred into a scintillation vial and dried at 40° C. under N2 gas. Once dried, 3 ml of scintillant (APB #NBC5104) is added and vials are counted for ^14C. The Beckman Scintillation counter calculates the average cpm values for triplicates.
The IC50 for the compounds is defined as the concentration of drug leading to a 50% reduction in [^14C]acetate incorporation into lipids compared to controls. This is determined by plotting the average cpm for each inhibitor concentration tested, performing linear regression and computing the best-fit line, r^2 values, and 95% confidence intervals. The average cpm values are computed by the Beckman scintillation counter (Model LS6500) for each compound concentration. Computation of linear regression, best-fit line, r^2, and 95% confidence intervals are calculated using Prism Version 3.0 (Graph Pad Software).

[3] = Solubility problem noted during the assays; type: physicochemical; details: read-out: Sol Prob (solubility problem at concentration)
[4] = system: MCF-7 human breast cancer cells (fatty acid oxidation pathway activity); assay: Fatty acid oxidation ([14C]palmitate to acid soluble products); type: cell-based; details: Homo sapiens, MCF7, read-out: FAO Max; for Emax at 0.098 µg/mL: at 0.098 μg/ml
Method: Measurement of Fatty Acid Oxidation and Determination of SC150 of Compounds This assay measures the degradation of [^14C]palmitate into acid soluble products and is a measure of fatty acid oxidation pathway activity in vitro. It is utilized to measure fatty acid oxidation in vitro. MCF-7 human breast cancer cells cultured as above, are plated at 2.5×10^5 cells per well in 24-well plates. Following overnight incubation, the compounds to be tested, solubilized in DMSO, are added at […], 0.39, 1.56, 6.25, 25, and 100 μg/ml in triplicate, with lower concentrations tested if necessary. DMSO is added to triplicate wells for a vehicle control. C75 is run at 5 and 10 μg/ml in triplicate as positive controls. After 1 hour of incubation, medium is removed 100 uM of [^14C] palmitate in cyclodextran and 200 uM carnitine in serum free medium (250 μl volume) is added to each well. After 30 minutes of additional incubation, the reaction is stopped by addition of 2.6N HClO4. Contents of each well are transferred to 1.5 ml Eppendorf tubes and 4N KOH is added. The tubes are incubated for 30 minutes at 60° C. 1 M NaAcetate and 3N H2SO4 is added to each tube and vortexed. The tubes are centrifuged at 1000 rpm for 5 minutes at RT. 250 μl of the supernatant is transferred to a 2 ml eppendorf tube. To each tube is added: 938 μl of chloroform:methanol (1:1), 468 μl chloroform and 281 μl of deionized water. The tubes are vortexed and centrifuged at 1000 rpm for 5 minutes at RT. 750 μl of the upper phase is transferred into a scintillation vial 5 ml of scintillant is added and vials are counted for 1 minute for ^14C. The Beckman Scintillation counter calculates the average cpm values for triplicates. The SC150 for the compounds is defined as the concentration of drug leading to a 150% increase in production of acid soluble products of [^14C] palmitate as compared to untreated controls. This is determined by plotting the average cpm for each inhibitor concentration tested, performing linear regression and computing the best-fit line, r^2 values, and 95% confidence intervals. The average cpm values are computed by the Beckman scintillation counter (Model LS6500) for each compound concentration. Computation of linear regression, best-fit line, r^2, and 95% confidence intervals are calculated using Prism Version 3.0 (Graph Pad Software). If a compound fails to achieve this 150% threshold it is considered negative. The maximum value achieved is also reported (FAO Max).

IC50 [2]: 26.3 µg/mL (≈ 57.9 µM)
solubility [3]: 80 µg/mL (≈ 176 µM)
Compound: CCCCCCCCC1(C)SC(=O)C=C1OCC(=O)Nc1ccc(S(N)(=O)=O)cc1 (stereo not drawn)
IC50 (HCT116 cells): 8.7 µg/mL (≈ 19.1 µM)
IC50 [1]: 7 µg/mL (≈ 15.4 µM)
IC50 (OVCAR3 cells): 13.4 µg/mL (≈ 29.5 µM)

Compound: CCCCCCCCC1(C)SC(=O)C=C1OCC(=O)N1CCN(c2ccc(C(F)(F)F)cc2)CC1 (stereo not drawn)
IC50 (HCT116 cells): > 80 µg/mL
IC50 [1]: 50.7 µg/mL (≈ 98.9 µM)
Emax at 1.56 µg/mL ([4]; at 1.56 μg/ml): 118%
IC50 (OVCAR3 cells): > 80 µg/mL

Compound: CCCCCCCCC1(C)SC(=O)C=C1OCC(=O)N1CCN(c2ccc(Cl)cc2)CC1 (stereo not drawn)
IC50 (HCT116 cells): 9.7 µg/mL (≈ 20.2 µM)
IC50 [1]: 35.7 µg/mL (≈ 74.5 µM)
Emax at 0.098 µg/mL [4]: 79%
IC50 (OVCAR3 cells): 24.4 µg/mL (≈ 50.9 µM)

Compound: CCCCCCCCC1(C)SC(=O)C=C1OCC(=O)N1CCN(c2ccc(OC)cc2)CC1 (stereo not drawn)
IC50 (HCT116 cells): > 80 µg/mL
IC50 [1]: > 80 µg/mL
Emax at 0.098 µg/mL [4]: 53%
IC50 (OVCAR3 cells): > 80 µg/mL

Compound: CCCCCCCCC1(C)SC(=O)C=C1OCC(=O)N1CCN(Cc2ccc(OC)cc2)CC1 (stereo not drawn)
IC50 (HCT116 cells): 69.7 µg/mL (≈ 143 µM)
IC50 [1]: 13.6 µg/mL (≈ 27.8 µM)
Emax at 0.098 µg/mL [4]: 83%
IC50 (OVCAR3 cells): 79.8 µg/mL (≈ 163 µM)

Source: patent US20110288052A1, “NOVEL COMPOUNDS, PHARMACEUTICAL COMPOSITIONS CONTAINING SAME, AND METHODS OF USE FOR SAME” (priority 2008, published 2011)
